Read-outs that look alike come from different tables or passages of the source.
Columns and labels:
[1] = system: control strain JAR200 that does not express scFv; assay: Flow cytometry, control strain that does not express scFv; format: cell-based, Saccharomyces cerevisiae; details: 300 nM dyedron, 675/50 bandpass
Experimental: (§1) FIG. 15. Flow cytometric analysis of dyedron-labeled yeast by exciting donor (blue) or acceptor (red). Saccharomyces cerevisiae cells expressing L5-MG E52D on their surface were analyzed essentially as described in WO 08/092,041 and in Szent-Gyorgyi, C.; Schmidt, B. F.; Creeger, Y.; Fisher, G. W.; Zakel, K. L.; Adler, S.; Fitzpatrick, J. A. J.; Woolford, C. A.; Yan, Q.; Vasilev, K. V.; Berget, P. B.; Bruchez, M. P.; Jarvik, J. W.; Waggoner, A. Nature Biotechnology 2008, 26, 235-240. Two aliquots of each stained population and an unstained control (U) were respectively analyzed, exciting at 532 nm (donor) or 635 nm (acceptor), and collecting emission through a 675/50 nm bandpass (BP) filter. Each analysis comprised 100,000 cells. Stained samples contain a sub-population of non-fluorescent cells due to loss of scFv-encoding plasmid, whose signal corresponds to that of unstained samples (marked by thin lines). Controls show virtually no fluorescence generated by dyedrons on cell surfaces in the absence of expressed FAP (Table 3). Unstained cells excited at 532 nm are relatively brighter than those excited at 635 nm due to higher cellular autofluorescence at the shorter wavelength. Doublet stained peaks correspond to unbudded and budded yeast cells, and are typical for such experiments. Separation of the positive cells from negative cells remains essentially constant under 635 nm excitation but increases in proportion to the number of Cy3 donors under 532 nm excitation. The enhanced excitation in the dyedrons results in increased sensitivity in the flow cytometer.

L5-MG E52D [2] = format: binding, human; details: yeast cell surface displayed L5-MG E52D; PBS+
Experimental: Microplate fluorometry was carried out on a Tecan Safire2 microplate reader using 96 well microplates with 5×10^6 yeast cells/well.
Yeast JAR200 cells expressing L5-MG E52D were suspended at 10^7 cells/ml in modified PBS+ buffer in the presence of the indicated dyedron concentrations. Fluorescence was read on a Safire2 plate fluorimeter. KD values reported in Table 2 were determined using GraphPad Prism 4 software fits to the one site hyperbolic binding curves shown here. Under these conditions, KD values below 1 nM cannot be determined precisely. Plateau fluorescence levels correspond closely to the relative fluorescence signals seen in flow cytometric analyses using 635 nm laser excitation of the MG band (Table 3).

L5-MG E52D [3] = format: physicochemical, human; details: bound to L5-MG E52D; for Relative quantum yield, 514 nm / Relative quantum yield, 532 nm / Relative quantum yield, 561 nm: normalized to 633 nm value; for Relative quantum yield, 633 nm: set to 1.00
L5-MG E52D [4] = format: physicochemical, human; details: soluble dyedron/L5-MG E52D complex; 620 nm excitation
Experimental: Fluoromodules were assembled as above, and quantum yields based on the acceptor MG excitation band were determined as described using Cy5.18 as the calibration dye (Szent-Gyorgyi, C., et al., Nature Biotechnology 2008, 26, 235-240). Quantum yields determined with 620 nm excitation (Table 2) were essentially the same as unreported quantum yields determined with 590 nm excitation (<5% difference).

L5-MG E52D [5] = format: physicochemical, human; details: soluble dyedron/L5-MG E52D complex
[6] = system: yeast strain JAR200 expressing L5-MG E52D scFv on the cell surface; assay: Flow cytometric quantification of dyedron binding to yeast displayed L5-MG E52D; format: cell-based, Saccharomyces cerevisiae; details: for increase in specific brightness (factor), 532 nm vs 635 nm staining ratio / 532 laser median / 635 laser median / 532 laser mean / 635 laser mean: 300 nM dyedron; for increase in specific brightness (factor), 532 nm vs 635 nm staining ratio: live yeast; for 532 laser median / 635 laser median / 532 laser mean / 635 laser mean: 675/50 bandpass, JAR200 L5-MG E52D; for 532 laser mean / 635 laser mean: gated positive population; for FACS532/FACS635: median of stained population - median of unstained control
Experimental: as §1

[7] = not given; remark: listed apart in the source
[8] = Donor array fluorescence of Cy3-labeled cystamine core PAMAM dendrimers; format: physicochemical
Experimental: To test the impact of high loading on donor array fluorescence, two cystamine core PAMAM dendrimers (Gen2-16 NH2 and Gen3-32 NH2) were labeled with an excess of monoreactive Cy3-NHS ester. After removal of excess dye by gel filtration the resulting macromolecules were analyzed by electrophoresis, and found to have low net mobility. Because each Cy3 molecule carries one net negative charge, a fully modified dendron should have a net charge of −2. […] However, these conjugates allow for the assessment of the potential risk of donor quenching.

selected scFv = assay: Fluorescence activation of malachite green by selected scFv; format: biochemical; details: in buffer

## CCN1/C(=C\C=C\C2=[N+](CCCCCC(=O)NCCNC(=O)CCCOc3ccc(C(=C4C=CC(=[N+](C)C)C=C4)c4ccc(N(C)C)cc4)cc3)c3ccc(S(=O)(=O)[O-])cc3C2(C)C)C(C)(C)c2cc(S(=O)(=O)[O-])ccc21 [CM, 1-{6-[(2-{[4-(4-{[4-(dimethylamino)phenyl][4-(dimethyliminio)cyclohexa-2,5-dien-1-ylidene]methyl}phenoxy)butanoyl]amino}ethyl)amino]-6-oxohexyl}-2-[(1E,3Z)-3-(1-ethyl-3,3-dimethyl-5-sulfonato-1,3-dihydro-2H-indol-2-ylidene)prop-1-en-1-yl]-3,3-dimethyl-3H-indolium-5-sulfonate]
[1]
  532 laser mean: 123
  532 laser median: 95
  635 laser mean: 108
  635 laser median: 65
L5-MG E52D [2]
  Kd: < 1 nM
L5-MG E52D [3]
  Relative quantum yield, 514 nm: 1.24
  Relative quantum yield, 532 nm: 1.08
  Relative quantum yield, 561 nm: 1.41
  Relative quantum yield, 633 nm: 1.00
L5-MG E52D [4]
  φMG (quantum yield for MG excitation peak): 0.057
L5-MG E52D [5]
  εmax [M^−1cm^−1]: 140,000 M^−1cm^−1
  εmax [nm]: 552 nm
[6]
  increase in specific brightness (factor), 532 nm vs 635 nm staining ratio: about 2
  532 laser median: 6170
  635 laser median: 2793
  532 laser mean: 15946
  635 laser mean: 7455
  FACS532/FACS635: 2.17

## CN(C)c1ccc(C(C#Cc2ccc(N(C)CCOCCCC(=O)O)cc2)=C2C=CC(=[N+](C)C)C=C2)cc1.[Cl-] [acetylenic derivative of malachite green]
other
  quantum yield in water: ≤ 0.003

## CN(C)c1ccc(C(=C2C=CC(=[N+](C)C)C=C2)c2ccc(OCCCC(=O)NCCNC(=O)CCC(=O)NCCOCCOCCN)cc2)cc1 [M, malachite green diethyleneglycolamine]
[1]
  532 laser mean: 111
  532 laser median: 76
  635 laser mean: 118
  635 laser median: 74
L5-MG E52D [2]
  Kd: < 1 nM
[7]; PBS+
  extinction coefficient: 50,700 M^−1cm^−1
[7]; ethanol/5% HAc
  extinction coefficient: 91,500 M^−1cm^−1
L5-MG E52D [3]
  Relative quantum yield, 561 nm: 1.44
  Relative quantum yield, 633 nm: 1.00
L5-MG E52D [4]
  φMG (quantum yield for MG excitation peak): 0.055
L5-MG E52D [5]
  εmax [M^−1cm^−1]: 79,000 M^−1cm^−1
  εmax [nm]: 642 nm
[6]
  532 laser median: 335
  635 laser median: 2635
  532 laser mean: 435
  635 laser mean: 7089
  FACS532/FACS635: 0.07

## CCN1/C(=C\C=C\C2=[N+](CCCCCC(=O)O)c3ccc(S(=O)(=O)O)cc3C2(C)C)C(C)(C)c2cc(S(=O)(=O)[O-])ccc21 [Cy3]
[8]
  Estimated Diam. (nm): 1.5 nm

## CC[N+]1=C(/C=C/C=C2/N(CCCCCC(=O)NCC(CNC(=O)CCCCCN3/C(=C/C=C/C4=[N+](CC)c5ccc(S(=O)(=O)O)cc5C4(C)C)C(C)(C)c4cc(S(=O)(=O)[O-])ccc43)OCC(=O)NCCCOc3ccc(C(=C4C=CC(=[N+](C)C)C=C4)c4ccc(N(C)C)cc4)cc3)c3ccc(S(=O)(=O)[O-])cc3C2(C)C)C(C)(C)c2cc(S(=O)(=O)[O-])ccc21 (centres unmarked) [BCM]
[1]
  532 laser mean: 113
  532 laser median: 84
  635 laser mean: 105
  635 laser median: 64
L5-MG E52D [2]
  Kd: 4 nM
L5-MG E52D [3]
  Relative quantum yield, 514 nm: 0.92
  Relative quantum yield, 532 nm: 0.86
  Relative quantum yield, 561 nm: 1.31
  Relative quantum yield, 633 nm: 1.00
L5-MG E52D [4]
  φMG (quantum yield for MG excitation peak): 0.047
L5-MG E52D [5]
  εmax [M^−1cm^−1]: 290,000 M^−1cm^−1
  εmax [nm]: 551 nm
[6]
  increase in specific brightness (factor), 532 nm vs 635 nm staining ratio: ~3
  532 laser median: 6912
  635 laser median: 2047
  532 laser mean: 17894
  635 laser mean: 5521
  FACS532/FACS635: 3.27

## CN(C)c1ccc(C(=C2C=CC(=[N+](C)C)C=C2)c2ccccc2)cc1 [Malachite green]
Selected scFv
  activation to fluorescent state (fold): > 15,000 fold
